The target in one experiment is T1, Cbl-b (Homo sapiens, UniProt Q13191).
T1 construct: biotin (biotinylated)
The experiment in a line: Cbl-b probe displacement HTRF binding assay. The settings on record: 0.4 nM biotinylated Cbl-b, 150 nM BODIPY probe. The method, then:
The affinity with which compounds of the present disclosure bind to Cbl-b was assessed using probe displacement homologous time resolved fluorescence (HTRF) assays. The assays used a BODIPY™ conjugated probe (Example 54 from WO 2020264398) and biotinylated Cbl-b. The assays were performed in assay buffer consisting of 20 mM Hepes, 150 mM NaCl, 0.01% Triton X-100, 0.5 mM TCEP, 0.01% BSA. On the day of the assay, a 20 point, 1:2 master serial dilution of each compound was prepared in DMSO to span a final concentration range of 10 μM to 0 nM. Two hundred nanoliters of diluted compound was added to each well of a 384-well plate. Fifteen microliters of biotinylated—Cbl-b resuspended in assay buffer were added to each well and the plate incubated for 60 minutes at room temperature prior to addition of 5 μL of BODIPY™ probe in assay buffer. Final assay conditions included 0.4 nM of Cbl-b and 150 nM of BODIPY™ probe. After a further 15 minutes of incubation at room temperature, 5 μl of Streptavidin-Terbium cryptate reagent at 5-fold final concentration was added to each well of the 384-well plate. Binding of a probe to Cbl-b results in an increase of HTRF signal. HTRF signal was measured by Envision plate reader, while competition of a compound of the present disclosure with probe results in a decrease of signal. Percentage maximum activity in each test well was calculated based on DMSO (maximum activity, 0% displacement) and no protein control wells (baseline activity, 100% displacement). Binding affinity was determined from a dose response curve fitted using a standard four parameter fit equation. See Table 3 for data for compounds (Cbl-b Binding (IC50)).

The test system of a further experiment is Jurkat cells. The experiment can be described thus: IL-2 secretion assay in CD3/CD28-activated Jurkat cells (AlphaLISA). Format: cell-based, human. As to conditions: Homo sapiens, CD3/CD28 T Cell Activator, 24 h, IL-2 AlphaLISA. The method, then: Certain compounds were also evaluated in an IL-2 secretion assay. On the day of the assay, a 16 point, 1:2 master serial dilution of each compound was prepared in Opti-MEM to span a final concentration range of 10 μM to 300 pM. Assays were setup in CORNING® tissue culture-treated 384-well microplates containing 60 nL of each dilution. Jurkat cells grown in RPMI-1640 supplemented with 10% FBS, 1% Glutamax, and 1% Pen/Strep were collected, resuspended in Opti-MEM. 50,000 cells/well and added to the compound plates. After a short spin (1200 rpm for 1 min), the plates were incubated at 37° C. for 1 hour. The cells were activated by adding 15 μL of IMUNOCULT™ Human CD3/CD28 T Cell Activator (STEMCELL Technologies) diluted in Opti-MEM. After 24 h of incubation at 37° C., aliquots of culture supernatants were transferred to OptiPlate-384 (PerkinElmer) microplates. The level of IL-2 secretion in the supernatants was then determined using the IL-2 (human) AlphaLISA Detection Kit (PerkinElmer) according to the manufacturer's recommendations. The AlphaLISA signal was measured using an EnVision plate reader (PerkinElmer). EC50 values were determined by fitting the data to a standard 4-parameter logistic equation. See Table 3 for data for select compounds (IL-2 Secretion (EC50)).

T1 sequence (Q13191 whole entry, species assumed): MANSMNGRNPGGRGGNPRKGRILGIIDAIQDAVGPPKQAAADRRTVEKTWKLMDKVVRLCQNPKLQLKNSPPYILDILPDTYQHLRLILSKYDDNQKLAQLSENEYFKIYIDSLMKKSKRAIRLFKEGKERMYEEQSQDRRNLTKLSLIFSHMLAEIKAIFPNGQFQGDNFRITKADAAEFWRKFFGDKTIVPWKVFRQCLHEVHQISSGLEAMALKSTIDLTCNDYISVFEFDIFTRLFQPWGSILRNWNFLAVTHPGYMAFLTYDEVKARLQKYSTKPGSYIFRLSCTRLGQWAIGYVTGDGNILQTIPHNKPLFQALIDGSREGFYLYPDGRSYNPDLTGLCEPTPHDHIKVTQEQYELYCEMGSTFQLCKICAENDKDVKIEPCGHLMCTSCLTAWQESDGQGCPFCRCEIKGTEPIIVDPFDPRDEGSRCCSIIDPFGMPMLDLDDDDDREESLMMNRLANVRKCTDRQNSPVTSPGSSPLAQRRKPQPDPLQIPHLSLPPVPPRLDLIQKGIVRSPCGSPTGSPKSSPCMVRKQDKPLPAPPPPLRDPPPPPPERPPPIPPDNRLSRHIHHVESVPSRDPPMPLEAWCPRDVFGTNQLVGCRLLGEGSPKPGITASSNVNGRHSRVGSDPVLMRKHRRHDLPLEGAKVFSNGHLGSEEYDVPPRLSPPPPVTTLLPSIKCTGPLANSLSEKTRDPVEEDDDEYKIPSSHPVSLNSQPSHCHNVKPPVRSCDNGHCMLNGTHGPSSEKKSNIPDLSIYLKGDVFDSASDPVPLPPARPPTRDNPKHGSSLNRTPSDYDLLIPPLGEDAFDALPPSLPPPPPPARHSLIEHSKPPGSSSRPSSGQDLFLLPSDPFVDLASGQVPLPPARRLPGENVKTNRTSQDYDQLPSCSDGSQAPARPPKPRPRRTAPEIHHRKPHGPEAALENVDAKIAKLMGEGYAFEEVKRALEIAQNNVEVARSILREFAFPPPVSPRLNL

On Cbl-b, `C[C@H]1CCCN(Cc2nc3c(C4CC4)cn(-c4cc(-c5ccc(F)cc5-c5nccn5C)cc(C5CC5)n4)c(=O)c3[nH]2)C1` [Example 51, 7-cyclopropyl-5-[6-cyclopropyl-4-[4-fluoro-2-(1-methylimidazol-2-yl)phenyl]pyridin-2-yl]-2-[[(3S)-3-methylpiperidin-1-yl]methyl]-3H-imidazo[4,5-c]pyridin-4-one] yielded an IC50 of less than 100 nM. Moreover, the EC50 in the experiment with Jurkat cells is less than 100 nM.
`CC(c1cc2c(S(C)(=O)=O)cn(-c3cc(-c4ccc(C#N)cc4-c4nccn4C)cc(C4CC4)n3)c(=O)c2[nH]1)N1CCC[C@H](C)C1` (mixture of isomers) [Example 101, 4-[2-(2-{1-[(S)-3-methyl-1-piperidyl]ethyl}-4-mesyl-7-oxo-1,6-dihydro-1,6-diaza-6-indenyl)-6-cyclopropyl-4-pyridyl]-3-(1-methyl-2-imidazolyl)benzonitrile] came in with an IC50 at Cbl-b of less than 100 nM. This compound also returned an EC50 with Jurkat cells of less than 100 nM.
Compound `CCOCCNCc1cc2ncn(-c3cc(-c4ccc(F)cc4-c4nncn4C)cc(C4CC4)n3)c(=O)c2[nH]1` [Example 31, 6-{6-cyclopropyl-4-[4-fluoro-2-(4-methyl-4H-1,2,4-triazol-3-yl)phenyl]-2-pyridyl}-2-[(2-ethoxyethylamino)methyl]-1,6-dihydro-1,4,6-triaza-7-indenone] gave an IC50 on Cbl-b of less than 100 nM. This compound registered a 50% effective concentration (EC50) in the experiment with Jurkat cells of less than 100 nM.
`COC1CN(Cc2cc3ncn(-c4cc(-c5ccc(F)cc5-c5nncn5C)cc(C5CC5)n4)c(=O)c3[nH]2)C1` [Example 32, 6-{6-cyclopropyl-4-[4-fluoro-2-(4-methyl-4H-1,2,4-triazol-3-yl)phenyl]-2-pyridyl}-2-[(3-methoxy-1-azetidinyl)methyl]-1,6-dihydro-1,4,6-triaza-7-indenone]: the IC50 on Cbl-b is less than 100 nM. In the experiment on Jurkat cells, the EC50 was 100 to 1000 nM.
As to `Cn1cnnc1-c1cc(F)ccc1-c1cc(C2CC2)nc(-n2cc(C#N)c3cc(C(O)C4CCCC4)[nH]c3c2=O)c1` (stereo not drawn) [Example 91, 2-(cyclopentylhydroxymethyl)-6-{6-cyclopropyl-4-[4-fluoro-2-(4-methyl-4H-1,2,4-triazol-3-yl)phenyl]-2-pyridyl}-7-oxo-1,6-dihydro-1,6-diaza-4-indenecarbonitrile], the IC50 at Cbl-b is less than 100 nM. In addition, in the experiment with Jurkat cells, the EC50 was less than 100 nM.
With `Cn1ccnc1-c1cc(F)ccc1-c1cc(C2CC2)nc(-n2cc(C3CC3)c3cc(CN4CCC[C@H](O)C4)[nH]c3c2=O)c1` [Example 58, 2-{[(S)-3-hydroxy-1-piperidyl]methyl}-4-cyclopropyl-6-{6-cyclopropyl-4-[4-fluoro-2-(1-methyl-2-imidazolyl)phenyl]-2-pyridyl}-1,6-dihydro-1,6-diaza-7-indenone], the IC50 at Cbl-b was less than 100 nM. The compound also came in with an EC50 with Jurkat cells of less than 100 nM.
On to `O=c1c2[nH]c(CN[C@H]3CCC[C@H]3O)cc2c(C2CC2)cn1-c1cc(F)cc(-c2ccc(F)cc2-c2nncn2C(F)F)c1` [Example 70, 2-{[(1S,2R)-2-hydroxycyclopentylamino]methyl}-4-cyclopropyl-6-{2′-[4-(difluoromethyl)-4H-1,2,4-triazol-3-yl]-4′,5-difluoro-3-biphenylyl}-1,6-dihydro-1,6-diaza-7-indenone], for which the IC50 at Cbl-b is less than 100 nM. This compound came in with an EC50 in the experiment on Jurkat cells of less than 100 nM.
Turning to `C[C@H]1CCCN(Cc2cc3c(C4CC4)cn(-c4cc(-c5ccc(C#N)cc5-c5nccn5C)cc(C(F)(F)F)n4)c(=O)c3[nH]2)C1` [Example 16, 4-[2-(2-{[(S)-3-methyl-1-piperidyl]methyl}-4-cyclopropyl-7-oxo-1,6-dihydro-1,6-diaza-6-indenyl)-6-(trifluoromethyl)-4-pyridyl]-3-(1-methyl-2-imidazolyl)benzonitrile], on Cbl-b, the IC50 is less than 100 nM. The compound also had an EC50 with Jurkat cells of less than 100 nM.
Compound `CC1(NCc2cc3c(C4CC4)cn(-c4cc(-c5ccc(F)cc5-n5nccc5C(F)(F)F)cc(C5CC5)n4)c(=O)c3[nH]2)CCC1` [Example 103, 4-cyclopropyl-6-[6-cyclopropyl-4-[4-fluoro-2-[5-(trifluoromethyl)pyrazol-1-yl]phenyl]pyridin-2-yl]-2-[[(1-methylcyclobutyl)amino]methyl]-1H-pyrrolo[2,3-c]pyridin-7-one] returned an IC50 on Cbl-b of less than 100 nM. The compound further gave an EC50 in the experiment with Jurkat cells of 100 to 1000 nM.
`Cn1ccnc1-c1cc(F)ccc1-c1cc(C2CC2)nc(-n2cc(C3CC3)c3cc(CN[C@H]4CCOC4)[nH]c3c2=O)c1` [Example 59, 2-{[(S)-tetrahydro-3-furylamino]methyl}-4-cyclopropyl-6-{6-cyclopropyl-4-[4-fluoro-2-(1-methyl-2-imidazolyl)phenyl]-2-pyridyl}-1,6-dihydro-1,6-diaza-7-indenone]: on Cbl-b, the IC50 is less than 100 nM. In addition, the half-maximal effective concentration (EC50) in the experiment on Jurkat cells was less than 100 nM.
For `CC(c1cc2c(S(C)(=O)=O)cn(-c3cc(-c4ccc(C#N)cc4-c4nccn4C)cc(C4CC4)n3)c(=O)c2[nH]1)N1CCO[C@H](C)C1` (mixture of isomers) [Example 102, 4-[2-(2-{1-[(R)-2-methyl-4-morpholinyl]ethyl}-4-mesyl-7-oxo-1,6-dihydro-1,6-diaza-6-indenyl)-6-cyclopropyl-4-pyridyl]-3-(1-methyl-2-imidazolyl)benzonitrile], the IC50 on Cbl-b was less than 100 nM. Also, the EC50 with Jurkat cells is less than 100 nM.
Compound `Cn1cnnc1-c1cc(F)ccc1-c1cc(C2CC2)nc(-n2cc(C#N)c3cc([C@@H](N)C(F)(F)F)[nH]c3c2=O)c1` [Example 97, 2-[(R)-1-amino-2,2,2-trifluoroethyl]-6-{6-cyclopropyl-4-[4-fluoro-2-(4-methyl-4H-1,2,4-triazol-3-yl)phenyl]-2-pyridyl}-7-oxo-1,6-dihydro-1,6-diaza-4-indenecarbonitrile] came in with an IC50 at Cbl-b of less than 100 nM. Besides, in the experiment with Jurkat cells, the EC50 lay within 100 to 1000 nM.
`COCCNCc1cc2ncn(-c3cc(-c4ccc(F)cc4-n4nncc4C)cc(C4CC4)n3)c(=O)c2[nH]1` [Example 132] came in with an IC50 on Cbl-b of less than 100 nM. The same compound came in with an EC50 in the experiment with Jurkat cells of less than 100 nM.
Regarding `C[C@@H]1CN(Cc2cc3c(C4CC4)cn(-c4cc(-c5ccc(F)cc5-c5nccn5C)cc(C5CC5)n4)c(=O)c3[nH]2)CCO1` [Example 54, 2-{[(R)-2-methyl-4-morpholinyl]methyl}-4-cyclopropyl-6-{6-cyclopropyl-4-[4-fluoro-2-(1-methyl-2-imidazolyl)phenyl]-2-pyridyl}-1,6-dihydro-1,6-diaza-7-indenone], the IC50 on Cbl-b was less than 100 nM. In the experiment with Jurkat cells, the EC50 is less than 100 nM.
The compound `Cn1ccnc1-c1cc(F)ccc1-c1cc(C2CC2)nc(-n2cc(C3CC3)c3cc(CN4C[C@H]5C[C@@H]4CO5)[nH]c3c2=O)c1` [Example 60, 2-({(1R,4R)-2-oxa-5-azabicyclo[2.2.1]hept-5-yl}methyl)-4-cyclopropyl-6-{6-cyclopropyl-4-[4-fluoro-2-(1-methyl-2-imidazolyl)phenyl]-2-pyridyl}-1,6-dihydro-1,6-diaza-7-indenone] returned an IC50 on Cbl-b of less than 100 nM. In the experiment with Jurkat cells, this compound yielded an EC50 of 100 to 1000 nM.
Take `Cn1cnnc1-c1cc(F)ccc1-c1cc(C2CC2)nc(-n2cc(C(F)(F)F)c3nc(C4CC4)[nH]c3c2=O)c1` [Example 39, 2-cyclopropyl-5-[6-cyclopropyl-4-[4-fluoro-2-(4-methyl-1,2,4-triazol-3-yl)phenyl]pyridin-2-yl]-7-(trifluoromethyl)-3H-imidazo[4,5-c]pyridin-4-one]: the IC50 on Cbl-b was less than 100 nM. The same compound yielded an EC50 with Jurkat cells of less than 100 nM.
The compound `Cn1cnnc1-c1cc(F)ccc1-c1cc(C2CC2)nc(-n2cnc3cc(C(O)C4CCCC4)[nH]c3c2=O)c1` (stereo not drawn) [Example 126, 6-[cyclopentyl(hydroxy)methyl]-3-[6-cyclopropyl-4-[4-fluoro-2-(4-methyl-1,2,4-triazol-3-yl)phenyl]pyridin-2-yl]-5H-pyrrolo[3,2-d]pyrimidin-4-one] registered an IC50 on Cbl-b of less than 100 nM. Moreover, the EC50 with Jurkat cells was less than 100 nM.
The compound `Cc1c[nH]nc1-c1cc(C#N)ccc1-c1cc(C2CC2)nc(-n2cc(C3CC3)c3cc(CNCC4(O)CCC4)[nH]c3c2=O)c1` [Example 20, 4-[2-cyclopropyl-6-[4-cyclopropyl-2-[[(1-hydroxycyclobutyl)methylamino]-methyl]-7-oxo-1H-pyrrolo[2,3-c]pyridin-6-yl]pyridin-4-yl]-3-(4-methyl-1H-pyrazol-3-yl)benzonitrile] had a half-inhibitory concentration (IC50) on Cbl-b of less than 100 nM. In the experiment with Jurkat cells, the EC50 was 100 to 1000 nM.
